Test results published in PubChem BioAssay AID179 (DTP/NCI, 2004).
Several values for one entry are separate records, joined by “and”; a condition that tells them apart may be missing. Equal values may be shown once. Activity calls are given as the source filed them.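 Rule for the calls: active = compounds giving half or more protection of infected cells from virus-caused growth loss, again on retest; inactive = the rest.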

Tested on: CEM cells HIV-1 protection, formazan growth assay
Test: NCI AIDS Antiviral Assay
Details: for IC50: measured here: growth of uninfected CEM cells
How it was run: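 Steps: treat uninfected and HIV-1-infected human CEM cells at five drug levels; quantify growth by soluble formazan; retest any compound reaching 50% protection; classify actives from the retest.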

Structure (SMILES) | EC50 | IC50 | outcome
C=C1CCC2CC1C(C(=O)c1c[nH]c3ccccc13)=NC2(C)C (centres undefined) | > 407 µM | > 407 µM | –
CC(=O)c1ccc2c(c1)CC1(C2)Cc2cc3c(c(C(=O)O)c2C1)CCC3 (centres undefined) | > 200 µM | 61.7 µM | –
Cc1ccc(SSc2ccc(C)cc2[N+](=O)[O-])c([N+](=O)[O-])c1 | > 200 µM | 9.33 µM and 14.5 µM | –
COc1ccc(-c2cc(Cc3cccs3)c(=O)[nH]n2)cc1 | – | – | inactive
CCCCN(C)C(=O)COc1cc2c(O)c3c(O)c(C)c4c(c13)C(=O)C(C)(O/C=C/C(OC)C(C)C(OC(C)=O)C(C)C(O)C(C)C(O)C(C)/C=C/C=C(\C)C(=O)N2)O4 (centres undefined) | 28.2 µM | 28.8 µM | –
COC1CC[C@@H]2CC(=O)CC[C@]2(C)C1=O (some centres undefined) | – | – | inactive
O=C1CSC(=S)N1 | > 1860 µM | 794 µM | –
CC(=O)OC1CC2C(C)(C)C(=O)C=C[C@]2(C)C2CCC3(C)C(c4ccoc4)C(=O)[C@H]4O[C@]43[C@]12C (some centres undefined) | > 15.5 µM | 12 µM | –
O=[N+]([O-])c1ccccc1S(=O)(=O)Nc1ccccc1 | – | – | inactive
COc1cc2c(=O)c3ccccc3oc2c(O)c1OC | > 200 µM | > 200 µM | –
O=[N+]([O-])c1cccc(-c2oc(C=Nc3ccccc3)c([N+](=O)[O-])c2-c2cccc([N+](=O)[O-])c2)c1 | > 56.2 µM | > 56.2 µM | –
Cc1ccc(S(=O)(=O)NC(CSSCC(NS(=O)(=O)c2ccc(C)cc2)C(=O)OC(C)(C)C)C(=O)OC(C)(C)C)cc1 (centres undefined) | > 200 µM | > 200 µM | –
COc1cc(C2c3cc4c(cc3OC(NN=C(C)C)C2C)OCO4)cc(OC)c1O (centres undefined) | > 200 µM | 5.5 µM | –
N/N=C1/CCCc2nonc21 | > 200 µM | > 200 µM | –
CCCCS(=O)(=O)O | > 200 µM | > 200 µM | –
NC(N)=NCC[C@H](NC(=O)OCCCCCn1ccc(=O)[nH]c1=O)C(=O)O | > 200 µM | > 200 µM | –
CCOC(=O)C(CCC(N)=O)(CCC(=O)OC)C(=O)OCC | > 200 µM | > 200 µM | –
CCOc1ccccc1NC(=O)/C=C1\NC(=O)CS1 | > 158 µM | 129 µM | –
CCN(C(=O)N[C@H](C(=O)N[C@@H](CSC)C(=O)N[C@@H](C)C(=O)OC)C(C)C)c1ccccc1 | – | – | inactive
N#CC1([N+](=O)[O-])C=C1c1ccccc1 (centres undefined) | > 200 µM | 89.1 µM | –
CC1(c2ccccc2)CCCC/C1=N/NC(N)=O (centres undefined) | 105 µM | 129 µM | –
O=C(c1ccccc1)c1cccc(C(=O)c2ccccc2)n1 | > 66.1 µM | > 66.1 µM | –

Structure (SMILES) | EC50 | IC50 | outcome
O=c1[nH]nc2ccc(n[nH]c1=O)c1ccccc21 | > 200 µM | 7.41 µM | –
COC(=O)C1=C(C)N2CCOC2(C)C(C(=O)OC)C1c1ccc[nH]1 (centres undefined) | > 200 µM | > 200 µM | –
CCC1C(c2cccc(OC)c2O)c2cc3c(cc2OC1N1CCCC1)OCO3 (centres undefined) | > 200 µM | 8.51 µM | –
CC(=O)NCCSSCCCCSSCCNC(C)=O | > 200 µM | 95.5 µM | –
COc1ccc(SSc2ccc(OC)cc2C(=O)O)c(C(=O)O)c1 | > 200 µM | > 200 µM | –
CC[N+]12CC[N+](CC)(CC1)C2 | > 708 µM | > 708 µM | –
CN(C)C(=NCc1ccccc1)NC#N | > 1230 µM | > 1230 µM | –
CCCN(CCC)C(=S)N/N=C(/C)c1ccccc1O | > 200 µM | 15.8 µM | –
COC(=N)C12C(N)=NC(OC)(OC)C1(C#N)C21C(=O)N(c2ccccc2)N=C1C (centres undefined) | > 200 µM | 97.7 µM | –
CC(CCc1nc2ccccc2[nH]1)C1CCC2C3CC[C@@H]4C[C@H](O)CC[C@]4(C)C3C[C@H](O)[C@]12C (some centres undefined) | > 50.1 µM | 4.07 µM | –
COc1cc(OC)c2c(O)c3c(c(-c4ccc5cc6c(c(O)c5c4O)C(=O)CC(C)(O)C6)c2c1)CC(C)OC3C (centres undefined) | – | – | inactive
O=C1CSC(=Nc2ccccc2F)N1c1ccccc1F | > 107 µM | > 107 µM | –
CCSSc1ccccc1C(=O)NC(CC)CO (centres undefined) | > 200 µM | 5.01 µM | –
O=C(/C=C/c1ccc(O)c(O)c1)CC(=O)/C=C/c1ccc(O)c(O)c1 | > 200 µM | 10.2 µM | –
N#Cc1cccc2c1Nc1ccccc1S2 | > 23.4 µM | > 23.4 µM | –
Fc1cc(F)c(F)c(S)c1F | – | – | active
CC(C)c1cccc(C(C)C)c1O | > 200 µM | > 200 µM | –
CS(=O)(=O)OCCn1cnc2nc(NC(=O)c3ccccc3)[nH]c(=O)c21 | > 182 µM | > 182 µM | –
Cc1cc(S(=O)(=O)Nc2nnc3c(C(F)(F)F)cc(Cl)cn23)c(S)cc1Cl | 166 µM | 170 µM | –
CC(C)(C)OC(=O)NC(Cc1ccccc1)C(=O)N[C@H]1c2ccsc2/C(=N/O)[C@H]1O (some centres undefined) | > 200 µM | 91.2 µM | –
COC(=O)C(C(=O)C(=O)Nc1nc2ccc([N+](=O)[O-])cc2s1)c1nc2ccc(Cl)cc2[nH]c1=O (centres undefined) | > 51.3 µM | > 51.3 µM | –
c1ccc(N/N=C2\CC(c3ccccc3)Oc3ccccc32)cc1 (centres undefined) | > 200 µM | 22.4 µM | –

Structure (SMILES) | EC50 | IC50 | outcome
CCOC(=O)/C(=C/c1cc(OC)ccc1OC)P(=O)(OCC)OCC | > 676 µM | 316 µM | –
COc1ccc(-c2cc(=O)cc(C(N)=O)o2)cc1 | > 200 µM | > 200 µM | –
S=C1SC2(CCCCCC2)NC2=C1CCCCC2 | > 25.7 µM | 15.8 µM | –
c1n[nH]cc1C12C3C4C5C3C1C5C42 (centres undefined) | > 200 µM | 120 µM | –
C=C(CCCC(C)OC(=O)NC(C)c1cccc2ccccc12)[Si](C)(C)C (centres undefined) | > 18.6 µM | > 18.6 µM | –
C/C=C/CC(C)C(O)C1C(=O)NC(CC)C(=O)N(C)CC(=O)N(C)C(CC(C)C)C(=O)NC(C(C)C)C(=O)N(C)C(CC(C)C)C(=O)NC(C)C(=O)NC(C)C(=O)N(C)C(CC(C)C)C(=O)N(C)C(CC(C)C)C(=O)N(C)C(C(C)C)C(=O)N1C (centres undefined) | 3.39 µM | 8.13 µM | –
CC1C[P+](c2ccccc2)(c2ccccc2)Cc2ccccc21 (centres undefined) | > 708 µM | 2.57 µM | –
CC1=C(C(=O)Nc2cc(F)c(F)cc2F)C(c2cccc([N+](=O)[O-])c2)C(C(=O)Nc2ccccc2C(F)(F)F)=C(C)N1 (centres undefined) | > 43.7 µM | > 43.7 µM | –
COc1cccc(N2C(=O)[C@H]3CC(C)c4c([nH]c5ccccc45)[C@H]3C2=O)c1 (some centres undefined) | > 35.5 µM | > 35.5 µM | –
N#C/C(=C\c1ccc(O)c(O)c1)C(=O)Nc1ccc(C(=O)O)cc1 | > 200 µM | 38.9 µM | –
O=C1OCc2cc3cc4c(cc3c(-c3ccc5c(c3)OCO5)c21)OCO4 (tested in a mixture with another compound) | – | – | inactive
CC(=O)c1c(O)n(-c2ccc(C)cc2)c(=O)c2c(N)n[nH]c12 | 100 µM | 117 µM | –
CC(=O)Nc1cc(S(=O)(=O)O)cc2cc(S(=O)(=O)O)c(N=Nc3ccc(C(=O)Nc4ccc5cc(S(=O)(=O)O)ccc5c4)cc3)c(O)c12 | – | – | inactive
OC1c2c(ccc3c2CCC3)CC12Cc1ccccc1C2 (centres undefined) | > 200 µM | 38 µM | –
CCC(=O)ONC(=O)Cn1ccc([N+](=O)[O-])n1 | > 200 µM | 66.1 µM | –
CC(=O)NNc1nc(C)c(C(=O)/C=C/c2ccc(/C=C/C(=O)c3sc(NNC(C)=O)nc3C)cc2)s1 | > 49 µM | > 49 µM | –
Cc1cc(N(CCC#N)CCC#N)ccc1/C=C/C(=O)Nc1ccccc1Cl | > 457 µM | > 457 µM | –
COC1=CC=C2CC(=C1)CCC1C2CCC2(C)C(=O)CCC12 (centres undefined) | – | – | inactive
CC(C)/C(Cl)=N/OC(=O)Nc1ccc(Br)cc1 | > 20 µM | 3.72 µM | –
CCCNC(=O)SCc1ccccc1 | – | – | inactive
NC(=O)CCC(CCC(N)=O)(CCC(N)=O)[N+](=O)[O-] | > 200 µM | > 200 µM | –
NC(=O)C(c1ccccc1)N1CCOCC1 (centres undefined) | > 200 µM | 1.02 µM | –

Structure (SMILES) | EC50 | IC50 | outcome
CC(=O)c1cccc(NC(=O)C(=O)NNc2n[nH]c(=S)n2N)c1 | > 282 µM | 6.76 µM | –
c1ccc2[nH]c(CSc3nc4ccccc4[nH]3)nc2c1 | > 200 µM | > 200 µM | –
CC(C)OP(=O)(OC(C)C)C1=NN(c2ccc([N+](=O)[O-])cc2)C(P(=O)(OC(C)C)OC(C)C)=NN1c1ccc([N+](=O)[O-])cc1 | > 2.19 µM | > 2.19 µM | –
CC(=O)OCC1OC(NC(=S)Nc2nc(-c3ccccc3)cc(-c3cc(Cl)ccc3O)n2)C(OC(C)=O)C(OC(C)=O)C1OC(C)=O (centres undefined) | > 200 µM | 5.13 µM | –
Cc1ccc(Nc2nnc(CSc3ccc(Cl)cc3)s2)c(S(=O)(=O)O)c1 | > 200 µM | 148 µM | –
O=C(CSc1nnc(Cc2ccccc2)o1)Nc1ccc(Cl)cc1 | > 100 µM | 72.4 µM | –
O=C(O)C12CCC(CC1=O)C2 (centres undefined) | > 200 µM | > 200 µM | –
CCCCCCOC(=O)c1[nH]c(=O)n(CCCCCC)c(=O)c1NC(=O)CNc1ccc2c(=O)c3ccccc3[nH]c2c1 | > 200 µM | 1 µM | –
CC(=O)/C=C(\c1ccccc1)c1c(O)c2ccccc2oc1=O | > 200 µM | 141 µM | –
COc1ccc(C(=O)N2CCN(c3ccc4[nH]c(=O)oc4c3)CC2)cc1 | > 200 µM | > 200 µM | –
Cc1ccc(SSc2nnnn2C)cc1 | > 200 µM | 11 µM | –
CC1(C)CN=C(Nc2ccc(Cl)cc2)S1 | – | – | inactive
CCOC(=O)c1nc2ccc(C(F)(F)F)cc2nc1NCc1ccc(OC)cc1 | > 200 µM | 38 µM | –
O=c1oc(-c2ccccc2NS(=O)(=O)c2ccccc2)nc2cc(Cl)ccc12 | > 200 µM | 1.45 µM | –
Nc1nc2cc(CNc3ccc(C(=O)NC(CCC(=O)O)C(=O)O)cc3)ccc2nc1-c1ccccc1 (centres undefined) | > 200 µM | 12.3 µM | –
CC1=C(C(=O)NNC(=O)c2ccccc2O)CC(C(=O)NNC(=O)c2ccccc2O)=C(C)N1 | > 200 µM | 1.66 µM | –
C=CCCCN1C(=O)CCCC1=O | – | – | inactive
CC1=C(C(=O)Nc2ccc([N+](=O)[O-])cc2)C(c2cccc([N+](=O)[O-])c2)C(C(=O)Nc2ccc([N+](=O)[O-])cc2)=C(C)N1 | > 4.9 µM | > 4.9 µM | –
Cc1ccc(NC(=O)CC2C(=O)Nc3ccccc3S2(=O)=O)c(C)c1 (centres undefined) | > 4.07 µM | > 4.07 µM | –
NC(N)=Nc1ccc(N)cc1 | – | – | inactive
